Test results from patent US20260232681A1, “CRYSTALLINE FORMS OF N-[4-[4-(4-MORPHOLINYL)-7H-PYRROLO[2,3-D]PYRIMIDIN-6- YL]PHENYL]-4-[[3(R)-[(L-OXO-2-PROPEN-L-YL)AMINO]-L-PIPERIDINYL]METHYL]-2-PYRIDINECARBOXAMIDE AS A COVALENT INHIBITOR OF MENIN-MLL INTERACTION” (BIOMEA FUSION, INC., priority 2023, published 2026).
Entries after “also recorded” stand apart in the source; their conditions may differ.

How the values were obtained:
[1] = test system: streptozotocin (STZ) induced type II diabetes in Wistar Han rats; test: Glycemic control in streptozotocin-induced diabetic rats (Examples 103, 105); type: in vivo, rat
Experimental: The present example provides the ability of Compound 10 to restore glycemic control to streptozotocin (STZ) induced type II diabetes in Wistar Han rats. Fahmy et al., 2017, World J. Pharm. Med. Res. 3(3):37-39.
Control and test compounds were stored at 4° C. and prepared weekly as needed. The vehicle for positive control pioglitazone was 0.25% carboxymethylcellulose and 1% Tween® 80 in reverse osmosis deionized water. The vehicle for Compound 10 was 10% DMSO, 10% Solutol HS 15, and 80% (10% hydroxypropyl-β-cyclodextrin in 50 mM citrate buffer at pH 3.0). The vehicle for streptozotocin pretreatment was 0.1 M sodium citrate pH 4.5.
On Day −3, twenty-four Wistar Han rats (plus eight spare Wistar Han rats) were measured for body weight and non-fasting glucose. Starting on Day −42, D12451 Research Diet was provided ad libitum throughout the study, except during designated procedures, as was water. In order to minimize the effects of stress on blood glucose and body, all animals including the spares received daily sham doses with phosphate buffered saline pH 7.2 (dose volume 5 mL/kg) via gavage beginning on Study Day −5 to Day −1. 20% Glucose in drinking water (200 g/L) was provided ad libitum for 24 hr after streptozotocin injection on Day −14 and Day −7.
On Days −14 and −7, streptozotocin was administered at 30 mg/kg/day QD intraperitoneally. Starting on Day 1, control and test compound were administered on the following schedule.
On Days −7 to −1 and on Days 1, 8, and 14 non-fasting blood glucose was measured. On Day 15, an oral glucose tolerance test was administered. The animals were weighed and the animals were placed in clean cages without food. Access to water was provided throughout the procedure. The animals were fasted for five hours and a blood glucose measurement was determined. The animals were dosed via oral gavage with 2 g/kg glucose (10 mL/kg). Blood glucose was determined via venipuncture. The second drop of blood from the animal was placed on a hand-held glucometer (Abbott Alpha Trak) at the following times relative to the glucose dose: zero (just prior to glucose dose), 15, 30, 60, 90, and 120 min. Following the final blood glucose measurement, food was returned to the cages. On Day 17, 4-hour fasting glucose was measured. Serum samples were used to measure insulin by ELISA. Analysis was performed in one to three days of each collection. On Day 17, terminal blood collection was obtained at about 8 mL per animal and measured for blood glucose.
ZDF rats were treated daily with Compound 10, vehicle, or pioglitazone for sixteen days and monitored for an additional two weeks post-treatment until Day 29. STZ rat models were induced through pre-treatment of animals on a high-fat diet with low doses of streptozotocin at Day −14 and Day −7 prior to starting treatment at Day Zero until Day 16. ZDF and STZ rats were monitored for fasting blood glucose levels, oral glucose tolerance test (OGTT), insulin and C-peptide levels, HOMA-IR (Homeostatic Model Assessment of Insulin Resistance), blood lipemic levels, and body weight according to the schematic for each model below. ZDF rats were analyzed for indicated readouts for fifteen days post-treatment for OGTT at Day 29, and serum insulin and C-peptide at Day 31.
STZ Rat Model—three treatment groups 1. Vehicle; 2. Compound 10 at 175 mg/kg; and 3. Pioglitazone at 30 mg/kg; n=10 per group. […] Rats were monitored for the following parameters through dosing—body weight, blood glucose levels, and OGTT.

[2] = test system: Zucker Diabetic Fatty (ZDF) rats; test: Glycemic control and HbA1c in ZDF rats, 28-day dosing plus 28-day washout (Examples 104, 106); type: in vivo
Experimental: Rats were treated daily with Compound 10, liraglutide, or vehicle for twnety-eight days and monitored for an additional twenty-eight days post-treatment.
Zucker Diabetic Fatty (ZDF) rats were dosed daily with Compound 10, liraglutide, or vehicle for twenty-eight days (n=10 per group) and monitored for an additional twenty-eight days post last dose. Fasting blood glucose, insulin, C-peptide levels, HbA1c, oral glucose tolerance test (OGTT), and body weight were monitored during and post-treatment.
ZDF Rat Model—five treatment groups 1. Vehicle; 2. Compound 10 at 40 mg/kg; 3. Compound 10 at 85 mg/kg; 4. Compound 10 at 170 mg/kg; and 5. Liraglutide at 0.2 mg/kg; n=10 per group. Group 2 dose (40 mg/kg) was increased to 200 mg/kg on Day 17 for rest of the dosing phase. Daily dosing zero to twenty-eight days days QD→drug wash out twenty-eight to fifty-six days. Rats were monitored for the following parameters through dosing and wash out phases—body weight, fasting blood sugar, blood insulin, C-peptide, OGTT, and HbA1C.

[3] = test system: Human ex vivo PDX tissue models harboring KRAS mutations; test: Ex vivo KRAS-mutated PDX tissue viability (CellTiter Glo, six days); type: cell-based; conditions: six-day treatment, all samples
Experimental: MOLM-13 and MiaPaCa-2 cells were incubated with Compound A for twenty-four hours and were analyzed by RNA-seq on an Illumina NextSeq 550 platform. […] Cell viability was measured using CellTiterGlo. Human ex vivo PDX tissue models harboring KRAS mutations were cultured with Compound A and clinical reversible menin inhibitors for six days. Cell viability was measured using CellTiter Glo.

MM cell lines = test: MM cell line proliferation (Cell Titer Glo, four days); type: cell-based
Experimental: (§1) Compound A was tested against a THL cell line (VAL), and a DEL cell line (U2932). An expanded panel of DHL cell lines were tested for sensitivity to Compound A. Ex vivo patient samples of THL and MYC-amplified DLBCL were tested with Compound A. Sensitivity of THL and MYC-driven DLBCL in both in vitro and ex vivo models were compared with clinical reversible menin inhibitors. Compound A was tested against a panel of MM cell lines and ex vivo MM patient samples of p53del, 13qdel, and relapsed/refractory cases.
(§2) DLBCL cell line TOLEDO was cultured in the presence of Compound A or clinical reversible menin inhibitors for six and fourteen hours. Menin protein expression was reduced up to 60% at 1 μM by Compound A after fourteen hours compared to clinical reversible inhibitors at <20% at similar concentrations. Menin protein expression was measured by the Wes system and analyzed using the Compass software (automated western blotting, Protein Simple). Signal was normalized to GAPDH and referenced to DMSO control (FIG. 171E). DLBCL and MM cell lines were cultured with Compound A, bortezomib (PS-341), or DMSO for four days and cell proliferation was measured by Cell Titer Glo. Ex vivo studies of DLBCL and MM models were conducted by measurement of cell proliferation (Cell Titer Glo) after six days of treatment with Compound A, PS-341, or DMSO control.

[4] = test system: patient-derived DLBCL Triple Hit Lymphoma (THL) and MYC-amplified PDX samples; test: Ex vivo DLBCL PDX samples (THL, MYC-amplified), six days; type: cell-based, human; conditions: THL/R-CHOP-refractory and MYC amplification/R-EPOCH refractory profiles
Experimental: as §1, §2

## C=CC(=O)N[C@@H]1CCCN(Cc2ccnc(C(=O)Nc3ccc(-c4cc5c(N6CCOCC6)ncnc5[nH]4)cc3)c2)C1 [Compound A, N-[4-[4-(4-morpholinyl)-7H-pyrrolo[2,3-d]pyrimidin-6-yl]phenyl]-4-[[3(R)-[(1-oxo-2-propen-1-yl)amino]-1-piperidinyl]methyl]-2-pyridinecarboxamide]
[1]; STZ rats
  blood lipemic levels: Significant reductions
  body weight: Significant reductions
[1]; STZ rats, after fifteen days of treatment
  oral glucose tolerance test, glucose control: significant glucose control
[1]; STZ-induced diabetes model
  insulin in the non-fasting state: significant reduction
[1]; STZ-induced diabetes model, compared to vehicle and control
  non-fasting glucose: sharp reduction
[2]; Day 25, versus vehicle
  glycemic control by oral glucose tolerance test (OGTT): improved glycemic control
[2]; daily for 28 days
  tolerability: tolerated Compound 10 well
[2]; effects lasting fifteen days after the last dose
  HbA1c at all doses tested: significant reductions
[2]; high-dose arm, up to Day 29, listed as Compound 10
  4-hour fasting blood glucose: strong reduction; also recorded: sustained and significant reduction
[3]
  growth of ex vivo preclinical models: Complete abrogation of growth
MM cell lines
  cell lethality: > 99%
[4]
  growth inhibition of ex vivo patient samples: complete growth inhibition
